Measurements: PubChem BioAssay (NCI)
Where “and” joins values, the source holds several entries; their conditions need not be identical. Identical values can stand only once.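 Tested at 5 concentrations; 48 h exposure; 96-well plates; endpoints linearly interpolated, else capped at highest concentration. GI50 = concentration required for 50% inhibition of growth. TGI: concentration producing complete growth inhibition.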

How the values were obtained:
Assay in all cases: DTP human tumour cell line panel, 48 h
MCF7 breast = test system: MCF7 breast
MDA-MB-435 = test system: MDA-MB-435
MDA-MB-231 breast = test system: MDA-MB-231 breast
DU-145 prostate = test system: DU-145 prostate
NCI/ADR-RES ovarian = test system: NCI/ADR-RES ovarian

| Compound | GI50 (MCF7 breast) | TGI (MCF7 breast) [µM] | GI50 (MDA-MB-435) [µM] | TGI (MDA-MB-435) [µM] | GI50 (MDA-MB-231 breast) [µM] | TGI (MDA-MB-231 breast) [µM] | GI50 (DU-145 prostate) | TGI (DU-145 prostate) [µM] | GI50 (NCI/ADR-RES ovarian) | TGI (NCI/ADR-RES ovarian) [µM] |
| --- | --- | --- | --- | --- | --- | --- | --- | --- | --- | --- |
| O=C1NC(=NCC(CO)c2ccccc2)S/C1=C\c1ccc2ncccc2c1 (stereo unspecified) | 12.4 µM | > 25 | 11.3 | > 25 | > 25 | > 25 | 18.4 µM | > 25 | > 25 µM | > 25 |
| COC1=C(OC)C(=O)C(/C=C(\C)C(=O)O)=C(C)C1=O | > 100 µM | > 100 | > 100 | > 100 | > 100 | > 100 | > 100 µM | > 100 | > 100 µM | > 100 |
| CCCCCCN(CCCCCC)CCCNc1nccc2ccccc12 | 1.56 µM | 3.46 | 1.57 | 3.06 | 1.44 | 2.91 | 3.42 µM | 11.9 | 1.6 µM | 3.37 |
| O=C(Oc1cccnc1)c1ccccc1Nc1ccnc(C(F)(F)F)c1 | 0.0865 µM | > 45.5 |  |  | 0.233 | > 62.2 | 0.273 µM | 3.17 | 0.186 µM | > 100 |
| O=C1C2=C(C(=O)c3c(O)ccc(O)c31)N(c1ccc(N3CCOCC3)nc1)Cc1ccccc1O2 | 0.161 µM | 0.658 | 0.321 | 1.05 | 0.243 | 0.814 | 0.326 µM | 1.03 | 0.401 µM | 13 |
| c1cncc(CNc2ccccc2-c2nnc(Nc3ccc4c(c3)OCO4)o2)c1 | 0.039 µM | > 100 |  |  | 0.343 | > 100 | 0.197 µM | > 100 | 0.0291 µM | 0.142 |
| O=C(N[C@H](c1ccc(Cl)c(Cl)c1)C1CNC1)c1ccc2cnccc2c1 | 3.25 µM | 13.9 | 2.84 | 11.8 | 3.36 | 15 | 8.52 µM | 21 | 15.6 µM | 30.2 |
| COc1cc2c(cc1OCCCCNC(=O)c1cc3ccccc3[nH]1)N=CC1CCCN1C2=O (stereo unspecified) | 6.82 µM | > 100 | 20.3 | 74.6 | 14.9 | 66.8 | 5.31 µM | 69.8 | 20.9 µM | > 100 |
| Nc1nc(N)c2cc(CNc3ccc(Cl)c(Cl)c3)ccc2n1 | 0.775 µM | 2.05 | 0.38 | 1.78 | 0.803 | 2.16 | 0.68 µM | 1.93 | 0.802 µM | 3.25 |
| N/C(=N\O)c1ncc(-c2ccc(C(F)(F)F)cc2)c(NC2CCCCCC2)n1 | 4.65 µM and 1.43 µM | 12.3 | 3.76 | 17 | 3.96 | 19.3 | 6.78 µM and 3.38 µM | 16.1 | 4.41 µM and 0.593 µM | 13.4 |
| Fc1ccc(-c2nc(-c3nc4ccc(Cl)cc4[nH]3)cc3c2[nH]c2ccccc23)cc1 | 3.27 µM | 16.6 | 3.59 | 14.3 | 2.88 | 13.6 | 3.41 µM | 12 | 3.42 µM | 28.3 |
| C=C1CC[C@@H]2C(C)(C)[C@@H](O)CC[C@@]2(C)[C@@H]1COc1ccc2ccc(=O)oc2c1 | 8.02 µM | 24.7 | 13.6 | 27.6 | 15.4 | 31.8 | 17.3 µM | 48.2 | 10.5 µM | 30.8 |
| Cc1ccc(-n2c3c(c4c(CN5CCCCC5)c(O)ccc42)CCc2ccccc2C3=O)cc1 | > 100 µM | > 100 | > 100 | > 100 | 30.7 | > 100 | > 100 µM | > 100 | 71.2 µM | > 100 |
| Cn1cc(-c2csc(-c3c[nH]c4ncccc34)n2)c2cc(Br)cnc21 | 6.77 µM | > 100 | 3.17 | 32.8 | 3.02 | > 100 | 3.51 µM | > 100 | 3.89 µM | > 100 |
| CC(C)=CC/C=C(/C)[C@H]1CC[C@]2(C)[C@@H]1CC[C@@H]1[C@@]3(C)CCC(=O)NC(C)(C)[C@@H]3CC[C@]12C | 18.8 µM | 62.8 | 20.7 | 48.9 | 20.5 | 44.3 | 16.9 µM | 31.7 | 22.2 µM | 55.6 |
| COc1ccc2c(c1)C(=O)c1c-2n(CCCN=[N+]=[N-])c(=O)c2ccccc12 | 1.5 µM | > 100 | 65.2 | > 100 | > 100 | > 100 | 61.5 µM | > 100 | 91.2 µM | > 100 |
